pIC50: −log10 of the molar value.
What follows are compounds tested on SK-HEP1 (assay: Cytotoxicity against human SK-Hep1 cells by MTT assay).
Assay type: functional, cell-based
Compound `CO[C@H]1C=C2[C@@H](CC[C@H](O)C2(C)C)[C@]2(C)CC[C@]3(C)[C@@H]([C@H](C)C/C=C/C(C)(C)O)CC[C@@]3(C)[C@H]12` has a pIC50 of less than 4.00. `C[C@H](C/C=C/C(C)(C)O)[C@H]1CC[C@@]2(C)[C@@H]3[C@@H](O)C=C4[C@@H](CC[C@H](O)C4(C)C)[C@]3(C)CC[C@]12C` gave a pIC50 of less than 4.00. `CO[C@H]1C=C2[C@@H](CC[C@H](OC(C)=O)C2(C)C)[C@]2(C)CC[C@]3(C)[C@@H]([C@H](C)C/C=C/C(C)(C)O)CC[C@@]3(C)[C@H]12` was tested, and the pIC50 was less than 4.00. `C[C@H](C/C=C/C(C)(C)O)[C@H]1CC[C@@]2(C)[C@@H]3C=CC4=C(CC[C@H](O)C4(C)C)[C@]3(C)CC[C@]12C` showed a pIC50 of less than 4.00. `C[C@H](C/C=C/C(C)(C)O)[C@H]1CC[C@@]2(C)[C@@H]3[C@@H](O)C=C4[C@@H](CC[C@H](O)C4(C)C)[C@]3(C=O)CC[C@]12C` gave a pIC50 of 4.01. For `COC(C)(C)/C=C/C[C@@H](C)[C@H]1CC[C@@]2(C)[C@@H]3[C@@H](O)C=C4[C@@H](CC[C@H](O)C4(C)C)[C@]3(C=O)CC[C@]12C`, the pIC50 was 4.04. Compound `CO[C@H]1C=C2[C@@H](CC[C@H](O)C2(C)C)[C@]2(C)CC[C@]3(C)[C@@H]([C@H](C)C/C=C/C(C)(C)OC)CC[C@@]3(C)[C@H]12` has a pIC50 of less than 4.00. Work on `CC(C)=CC(=O)C[C@@H](C)[C@H]1CC[C@@]2(C)[C@@H]3C(=O)C=C4[C@@H](CCC(=O)C4(C)C)[C@]3(C)CC[C@]12C` yielded a pIC50 of less than 4.00. Compound `COc1cc([C@@H]2c3cc4c(cc3[C@@H](O[C@@H]3O[C@@H]5CO[C@@H](C)O[C@H]5[C@H](O)[C@H]3O)[C@H]3COC(=O)[C@H]23)OCO4)cc(OC)c1O` [ETOPOSIDE] has a pIC50 of 4.30.
